Measurements reported in paper PMC7928206 (Toxicology in vitro : an international journal published in …, 2021).

Assays:
[1] = Observed stability of the compound; conditions: also propensity to adhere to glass
[2] = molecular target: T1, rat brain acetylcholinesterase (AChE) (Rattus norvegicus, UniProt P37136); format: biochemical; conditions: in brain and peripheral tissues
T1 sequence (P37136 32-614): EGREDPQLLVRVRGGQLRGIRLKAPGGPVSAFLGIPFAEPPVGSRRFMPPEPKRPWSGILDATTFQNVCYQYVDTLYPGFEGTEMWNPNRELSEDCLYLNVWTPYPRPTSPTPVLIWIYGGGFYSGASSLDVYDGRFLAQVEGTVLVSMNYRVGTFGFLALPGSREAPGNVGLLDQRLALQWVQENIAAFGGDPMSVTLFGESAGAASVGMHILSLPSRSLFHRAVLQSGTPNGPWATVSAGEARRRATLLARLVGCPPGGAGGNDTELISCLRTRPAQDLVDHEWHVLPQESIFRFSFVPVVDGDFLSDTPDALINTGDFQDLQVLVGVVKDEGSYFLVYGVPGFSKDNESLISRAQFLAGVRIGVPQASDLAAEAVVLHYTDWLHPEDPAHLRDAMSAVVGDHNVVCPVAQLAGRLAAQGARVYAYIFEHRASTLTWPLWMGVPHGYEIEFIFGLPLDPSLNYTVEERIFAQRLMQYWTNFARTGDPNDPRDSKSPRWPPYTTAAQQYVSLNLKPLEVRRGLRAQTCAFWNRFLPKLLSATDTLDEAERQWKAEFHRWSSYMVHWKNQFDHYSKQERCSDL

[3] = molecular target: rat serum butyrylcholinesterase (BChE) (Rattus norvegicus, UniProt Q9JKC1); format: biochemical
rat serum butyrylcholinesterase (BChE), sequence (Q9JKC1 24-597): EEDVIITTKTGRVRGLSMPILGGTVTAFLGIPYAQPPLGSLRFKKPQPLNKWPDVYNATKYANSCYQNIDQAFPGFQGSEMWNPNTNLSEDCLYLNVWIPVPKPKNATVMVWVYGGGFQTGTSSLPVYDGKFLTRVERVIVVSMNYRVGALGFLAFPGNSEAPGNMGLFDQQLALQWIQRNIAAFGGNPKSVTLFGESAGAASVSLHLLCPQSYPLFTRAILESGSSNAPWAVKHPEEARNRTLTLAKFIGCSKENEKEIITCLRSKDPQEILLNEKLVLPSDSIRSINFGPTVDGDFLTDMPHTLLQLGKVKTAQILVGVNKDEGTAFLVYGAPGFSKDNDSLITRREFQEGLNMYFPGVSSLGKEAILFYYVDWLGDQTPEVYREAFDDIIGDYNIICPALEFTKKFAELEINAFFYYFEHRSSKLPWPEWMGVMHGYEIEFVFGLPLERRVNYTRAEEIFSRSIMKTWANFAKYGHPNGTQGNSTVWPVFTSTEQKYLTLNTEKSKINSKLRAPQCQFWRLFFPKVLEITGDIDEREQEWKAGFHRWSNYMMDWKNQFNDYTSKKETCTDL

SMILES: CCOP(=O)(OCC)Oc1cc(C)nc(C(C)C)n1 [Diazoxon]
- stability, result in words [1]: particularly unstable

SMILES: CCOP(=O)(OCC)Oc1nc(Cl)c(Cl)cc1Cl [Chlorpyrifos-oxon]
- fold more potent AChE inhibitor than ethyl-ronnel-oxon [2]: about 70 fold

SMILES: COP(=O)(OC)SCn1nnc2ccccc2c1=O [Azinphos-methyl-oxon]
- Serum BChE inhibition, result in words [3]: not good inhibitors of serum BChE
